Values of other authors, collected in CN110302150A, “甲硫氨酸维生素b1注射液及其的制备方法” (Chengdu Cacumen Et Folium Clerodendri Mandarinori …, priority 2019, dated 2019).
Where two headings read alike, the source gives them in different places.

Structure (SMILES)	stability (during production and storage)	stability (high temperature and pH>4)
CSCCC(N)C(=O)O (stereo not drawn) [甲硫氨酸]	不稳定,较易降解	–
Cc1ncc(C[n+]2csc(CCO)c2C)c(N)n1 [维生素B1]	不稳定,较易降解	不稳定
